Consider 25 compounds from patent US9890147B2 (BAYER PHARMA AKTIENGESELLSCHAFT, priority 2012, dated 2018).

In one assay the target is T1, BRD4 (BD1) (Homo sapiens, UniProt O60885).
T1 construct: with relatively long constructs also being possible, preferably amino acids 44-168; made in house; host or cells: E. coli
The assay can be described thus: Binding assay BRD4/acetylated peptide H4 (TR-FRET protein-protein interaction assay). In short, it runs like this:
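His6-BRD4 BD1 (aa 67-152, E. coli), usually 10 nM, with biotinylated tetra-acetylated H4 peptide in HEPES pH 7.5 buffer; 11 compound concentrations 0.1 nM–20 μM in duplicate, 10 min preincubation, 1 h at 22 °C then ≥3 h at 4 °C. TR-FRET 665/620 ratio; IC50 by 4-parameter fit.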

A further assay has as its system MOLM-13 cells. The assay can be described thus: Cell proliferation assay (alamarBlue), MOLM-13. In kind it is cell-based. The settings on record: Homo sapiens, 96 hours incubation, inhibition of cell proliferation. In short, it runs like this:
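Cells in RPMI1640/10% FCS read by alamarBlue fluorescence (ex 530, em 590 nm) after overnight 37 °C incubation, then treated at 1E-5 to 1E-8 M for 96 h. Pre-treatment values subtracted from endpoint values and compared with buffer-only wells; IC50 is 50% proliferation inhibition.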

The term IC50 denotes the concentration that inhibits the measured activity by half. As to `CNC(=O)N1N=C(c2ccc(-c3cccc(C(=O)NCCN(C)C)c3)cc2)c2cc(OC)c(OC)cc2CC1C` (racemic) [Example 113, (±)-1-(3′-{[2-(dimethylamino)ethyl]carbamoyl}biphenyl-4-yl)-7,8-dimethoxy-N,4-dimethyl-4,5-dihydro-3H-2,3-benzodiazepine-3-carboxamide], the IC50 at BRD4 (BD1) was found to be 40 nM; with MOLM-13 cells, 1420 nM.

On to `CNC(=O)N1N=C(c2ccc(-c3cccc(S(N)(=O)=O)c3)cc2)c2cc(OC)c(OC)cc2CC1C` (racemic) [Example 114, (±)-7,8-dimethoxy-N,4-dimethyl-1-(3′-sulphamoylbiphenyl-4-yl)-4,5-dihydro-3H-2,3-benzodiazepine-3-carboxamide], for which the half-inhibitory concentration (IC50) at BRD4 (BD1) amounted to 40 nM; in the assay on MOLM-13 cells, 300 nM.

Consider `CNC(=O)N1N=C(c2ccc(-c3ccc(S(=O)(=O)NC)cc3)cc2)c2cc(OC)c(OC)cc2CC1C` (racemic) [Example 115, (±)-7,8-dimethoxy-N,4-dimethyl-1-[4′-(methylsulphamoyl)biphenyl-4-yl]-4,5-dihydro-3H-2,3-benzodiazepine-3-carboxamide], for which the IC50 at BRD4 (BD1) was 50 nM; in the assay on MOLM-13 cells it was 460 nM.

With `CNC(=O)N1N=C(c2ccc(-c3cccn3C)cc2)c2cc(OC)c(OC)cc2CC1C` (racemic) [Example 116, (±)-7,8-dimethoxy-N,4-dimethyl-1-[4-(1-methyl-1H-pyrrol-2-yl)phenyl]-4,5-dihydro-3H-2,3-benzodiazepine-3-carboxamide], the IC50 was 70 nM on BRD4 (BD1) and 490 nM in the assay with MOLM-13 cells.

For `CNC(=O)N1N=C(c2ccc(-c3ccc(C)nc3)cc2)c2cc(OC)c(OC)cc2CC1C` (racemic) [Example 117, (±)-7,8-dimethoxy-N,4-dimethyl-1-[4-(6-methylpyridin-3-yl)phenyl]-4,5-dihydro-3H-2,3-benzodiazepine-3-carboxamide], the results for the IC50 on BRD4 (BD1) and in the assay on MOLM-13 cells were 50 nM and 380 nM, respectively.

Take `CNC(=O)N1N=C(c2ccc(-c3ccc(S(=O)(=O)NC4CC4)cc3)cc2)c2cc(OC)c(OC)cc2CC1C` (racemic) [Example 118, (±)-1-[4′-(cyclopropylsulphamoyl)-biphenyl-4-yl]-7,8-dimethoxy-N,4-dimethyl-4,5-dihydro-3H-2,3-benzodiazepine-3-carboxamide]: the IC50 on BRD4 (BD1) turned out to be 70 nM; in the assay on MOLM-13 cells it was 500 nM.

Take `CNC(=O)N1N=C(c2ccc(-c3cc(O)cc(F)c3)cc2)c2cc(OC)c(OC)cc2CC1C` (racemic) [Example 119, (±)-1-(3′-fluoro-5′-hydroxybiphenyl-4-yl)-7,8-dimethoxy-N,4-dimethyl-4,5-diliydro-3H-2,3-benzodiazepine-3-carboxamide]: the results for the half-maximal inhibitory concentration (IC50) at BRD4 (BD1) and with MOLM-13 cells were 90 nM and 410 nM, respectively.

Regarding `CNC(=O)N1N=C(c2ccc(-c3cc(C)cc(F)c3)cc2)c2cc(OC)c(OC)cc2CC1C` (racemic) [Example 120, (±)-1-(3′-fluoro-5′-methylbiphenyl-4-yl)-7,8-dimethoxy-N,4-dimethyl-4,5-dihydro-3H-2,3-benzodiazepine-3-carboxamide], the figures for the IC50 at BRD4 (BD1) and with MOLM-13 cells were 190 nM and 800 nM, respectively.

As for `CNC(=O)N1N=C(c2ccc(-c3cccc(S(=O)(=O)NC)c3)cc2)c2cc(OC)c(OC)cc2CC1C` (racemic) [Example 121, (±)-7,8-dimethoxy-N,4-dimethyl-1-[3′-(methylsulphamoyl)biphenyl-4-yl]-4,5-dihydro-3H-2,3-benzodiazepine-3-carboxamide], the values for the concentration for half-maximal inhibition (IC50) at BRD4 (BD1) and in the assay with MOLM-13 cells were 40 nM and 270 nM, respectively.

On to `CNC(=O)N1N=C(c2ccc(-c3cncc(F)c3)cc2)c2cc(OC)c(OC)cc2CC1C` (racemic) [Example 122, (±)-1-[4-(5-fluoropyridin-3-yl)phenyl]-7,8-dimethoxy-N,4-dimethyl-4,5-dihydro-3H-2,3-benzodiazepine-3-carboxamide], for which the IC50 came out at 60 nM on BRD4 (BD1) and 660 nM in the assay with MOLM-13 cells.

In the case of `CNC(=O)N1N=C(c2ccc(-c3cnccc3F)cc2)c2cc(OC)c(OC)cc2CC1C` (racemic) [Example 123, (±)-1-[4-(4-fluoropyridin-3-yl)phenyl]-7,8-dimethoxy-N,4-dimethyl-4,5-dihydro-3H-2,3-benzodiazepine-3-carboxamide], the IC50 was 50 nM on BRD4 (BD1) and 630 nM in the assay with MOLM-13 cells.

In the case of `CNC(=O)N1N=C(c2ccc(-c3cccnc3C)cc2)c2cc(OC)c(OC)cc2CC1C` (racemic) [Example 124, (±)-7,8-dimethoxy-N,4-dimethyl-1-[4-(2-methylpyridin-3-yl)phenyl]-4,5-dihydro-3H-2,3-benzodiazepine-3-carboxamide], the IC50 is 90 nM at BRD4 (BD1) and 1070 nM with MOLM-13 cells.

With `CNC(=O)N1N=C(c2ccc(-c3ccnc(OC)c3)cc2)c2cc(OC)c(OC)cc2CC1C` (racemic) [Example 125, (±)-7,8-dimethoxy-1-[4-(2-methoxypyridin-4-yl)phenyl]-N,4-dimethyl-4,5-dihydro-3H-2,3-benzodiazepine-3-carboxamide], the concentration for half-maximal inhibition (IC50) on BRD4 (BD1) worked out at 70 nM; in the assay with MOLM-13 cells it was 1160 nM.

As for `CNC(=O)N1N=C(c2ccc(-c3cncc(C#N)c3)cc2)c2cc(OC)c(OC)cc2CC1C` (racemic) [Example 126, (±)-1-[4-(5-cyanopyridin-3-yl)phenyl]-7,8-dimethoxy-N,4-dimethyl-4,5-dihydro-3H-2,3-benzodiazepine-3-carboxamide], the IC50 at BRD4 (BD1) came out at 90 nM; in the assay on MOLM-13 cells, 740 nM.

With `CNC(=O)N1N=C(c2ccc(N3CCC(O)CC3)cc2)c2cc(OC)c(OC)cc2CC1C` (racemic) [Example 130, (±)-1-[4-(4-hydroxypiperidin-1-yl)phenyl]-7,8-dimethoxy-N,4-dimethyl-4,5-dihydro-3H-2,3-benzodiazepine-3-carboxamide], the results for the IC50 on BRD4 (BD1) and with MOLM-13 cells were 30 nM and 170 nM, respectively.

`CNC(=O)N1N=C(c2ccc(N3CCN(C(=O)C(C)(C)O)CC3)cc2)c2cc(OC)c(OC)cc2CC1C` (racemic) [Example 134, (±)-1-{4-[4-(2-hydroxy-2-methylpropanoyl)-piperazin-1-yl]phenyl}-7,8-dimethoxy-N,4-dimethyl-4,5-dihydro-3H-2,3-benzodiazepine-3-carboxamide]: the figures for the half-maximal inhibitory concentration (IC50) at BRD4 (BD1) and in the assay with MOLM-13 cells were 50 nM and 360 nM, respectively.

For `CNC(=O)N1N=C(c2ccc(N3CCNC(=O)C3)cc2)c2cc(OC)c(OC)cc2CC1C` (racemic) [Example 137, (±)-7,8-dimethoxy-N,4-dimethyl-1-[4-(3-oxopiperazin-1-yl)phenyl]-4,5-dihydro-3H-2,3-benzodiazepine-3-carboxamide], the results for the IC50 at BRD4 (BD1) and in the assay with MOLM-13 cells were 60 nM and 490 nM, respectively.

On to `CNC(=O)N1N=C(c2ccc(N3CCN(C)C(=O)C3)cc2)c2cc(OC)c(OC)cc2CC1C` (racemic) [Example 138, (±)-7,8-dimethoxy-N,4-dimethyl-1-[4-(4-methyl-3-oxopiperazin-1-yl)phenyl]-4,5-dihydro-3H-2,3-benzodiazepine-3-carboxamide], for which the concentration for half-maximal inhibition (IC50) on BRD4 (BD1) stood at 30 nM; with MOLM-13 cells, 280 nM.

Take `CNC(=O)N1N=C(c2cccc(N3CCOCC3)c2)c2cc(OC)c(OC)cc2CC1C` (racemic) [Example 140, (±)-7,8-dimethoxy-N,4-dimethyl-1-[3-(morpholin-4-yl)phenyl]-4,5-dihydro-3H-2,3-benzodiazepine-3-carboxamide]: the IC50 came to 60 nM on BRD4 (BD1) and 470 nM in the assay on MOLM-13 cells.

As to `CNC(=O)N1N=C(c2cccc(N3CC(F)(F)C3)c2)c2cc(OC)c(OC)cc2CC1C` (racemic) [Example 141, (±)-1-[3-(3,3-difluoroazetidin-1-yl)phenyl]-7,8-dimethoxy-N,4-dimethyl-4,5-dihydro-3H-2,3-benzodiazepine-3-carboxamide], the half-maximal inhibitory concentration (IC50) worked out at 70 nM at BRD4 (BD1) and 550 nM in the assay with MOLM-13 cells.

On to `CNC(=O)N1N=C(c2cccc(N3CCC3)c2)c2cc(OC)c(OC)cc2CC1C` (racemic) [Example 142, (±)-1-[3-(azetidin-1-yl)phenyl]-7,8-dimethoxy-N,4-dimethyl-4,5-dihydro-3H-2,3-benzodiazepine-3-carboxamide], for which the values for the 50% inhibitory concentration (IC50) at BRD4 (BD1) and in the assay on MOLM-13 cells were 100 nM and 680 nM, respectively.

Regarding `CNC(=O)N1N=C(c2cccc(N3CCN(C)CC3)c2)c2cc(OC)c(OC)cc2CC1C` (racemic) [Example 143, (±)-7,8-dimethoxy-N,4-dimethyl-1-[3-(4-methylpiperazin-1-yl)phenyl]-4,5-dihydro 3H-2,3-benzodiazepine-3-carboxamide], the figures for the half-inhibitory concentration (IC50) on BRD4 (BD1) and in the assay on MOLM-13 cells were 170 nM and 840 nM, respectively.

`CNC(=O)N1N=C(c2ccc(F)c(N3CCOCC3)c2)c2cc(OC)c(OC)cc2CC1C` (racemic) [Example 144, (±)-1-[4-fluoro-3-(morpholin-4-yl)phenyl]-7,8-dimethoxy-N,4-dimethyl-4,5-dihydro-3H-2,3-benzodiazepine-3-carboxamide]: the values for the concentration for half-maximal inhibition (IC50) on BRD4 (BD1) and in the assay on MOLM-13 cells were 190 nM and 960 nM, respectively.

For the compound `CNC(=O)N1N=C(c2ccc(F)c(N3CC(F)(F)C3)c2)c2cc(OC)c(OC)cc2CC1C` (racemic) [Example 145, (±)-1-[3-(3,3-difluoroazetidin-1-yl)-4-fluorophenyl]-7,8-dimethoxy-N,4-dimethyl-4,5-dihydro-3H-2,3-benzodiazepine-3-carboxamide], the 50% inhibitory concentration (IC50) was 110 nM at BRD4 (BD1) and 830 nM with MOLM-13 cells.

With `CNC(=O)N1N=C(c2ccc(F)c(N3CCC(O)CC3)c2)c2cc(OC)c(OC)cc2CC1C` (racemic) [Example 146, (±)-1-[4-fluoro-3-(4-hydroxypiperidin-1-yl)phenyl]-7,8-dimethoxy-N,4-dimethyl-4,5-dihydro-3H-2,3-benzodiazepine-3-carboxamide], the IC50 stood at 470 nM on BRD4 (BD1) and 1150 nM with MOLM-13 cells.
